The values below come from PubChem BioAssay (NCI).

Structures are written as SMILES.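 Assay format: 96-well plates, 48-hour exposure. GI50: concentration for 50% inhibition of growth. The concentration for full growth arrest is given as TGI.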

Among the test systems are 786-0 renal; COLO 205 colon; HL-60(TB) leukemia; LOX IMVI melanoma; SK-MEL-5 melanoma; SN12C renal; U251 CNS; KM12 colon; SF-268 CNS.
Holding throughout (assay): NCI anticancer screen, dose series, 48 h

Take `O=C1/C(=C\c2ccc(F)cc2)CN(C(=O)c2ccccc2)C/C1=C\c1ccc(F)cc1`: the GI50 with 786-0 renal was 1.83 µM; in the assay on COLO 205 colon, 3.15 µM; with HL-60(TB) leukemia, 3.56 µM; with LOX IMVI melanoma it was 1.41 µM; in the assay on SK-MEL-5 melanoma, 1.66 µM; with SN12C renal, 3.02 µM. In addition, the GI50 in the assay with U251 CNS was 1.65 µM. Also, the TGI with 786-0 renal is 4.25 µM; in the assay with COLO 205 colon, 10 µM; in the assay on HL-60(TB) leukemia, over 100 µM; in the assay with LOX IMVI melanoma it was 3.18 µM; in the assay with SK-MEL-5 melanoma, 3.8 µM; with SN12C renal, 12.1 µM. The TGI with U251 CNS was 3.76 µM.

Regarding `O=[N+]([O-])c1ccc(C2CC(c3ccccc3Cl)=Nc3ccccc3S2)cc1` (stereo unspecified), the TGI with 786-0 renal was 12.3 µM; in the assay on COLO 205 colon it was over 57.6 µM; in the assay with HL-60(TB) leukemia, 6.36 µM; in the assay on KM12 colon, 13.4 µM; with LOX IMVI melanoma it was 11.8 µM; in the assay with SF-268 CNS, 18.9 µM. The figures for the TGI with SK-MEL-5 melanoma, in the assay with SN12C renal and with U251 CNS were 12.8 µM, 17.4 µM and 12.2 µM, respectively.

As to `Nc1c(-c2cn(Cc3ccccc3)c3ccccc23)[n+]([O-])c2ccccc2[n+]1[O-]`, the TGI is over 100 µM in the assay on 786-0 renal; over 100 µM with COLO 205 colon; 42.6 µM with HL-60(TB) leukemia; over 100 µM in the assay with KM12 colon; over 100 µM with LOX IMVI melanoma; over 100 µM in the assay on SF-268 CNS. Besides, the figures for the TGI with SK-MEL-5 melanoma, in the assay with SN12C renal and in the assay with U251 CNS were 51.3 µM, over 100 µM and over 100 µM, respectively.

Turning to `COc1ccc(OC(C)=O)c2c1CCC=CC2=O`, the TGI in the assay with 786-0 renal was 32.5 µM; in the assay on COLO 205 colon it was 23 µM; in the assay on HL-60(TB) leukemia it was 6.7 µM; with KM12 colon it was 12.6 µM; in the assay on LOX IMVI melanoma, 17.5 µM; in the assay on SK-MEL-5 melanoma it was 28.9 µM. For the same compound, the TGI with SN12C renal amounted to 31 µM; in the assay with U251 CNS, 32.2 µM.

For `CC(=O)Nc1ccc(/C=c2\sc3nnc(CCC(=O)Nc4ccccc4Cl)n3c2=O)cc1`, the TGI amounted to 48.9 µM in the assay with 786-0 renal; 41 µM with HL-60(TB) leukemia; 46.4 µM with KM12 colon; 34.5 µM in the assay on LOX IMVI melanoma; 88 µM in the assay on SF-268 CNS; 68.2 µM in the assay with SK-MEL-5 melanoma. Moreover, the TGI with SN12C renal was over 100 µM; in the assay with U251 CNS it was 31.8 µM.

As to `C#CCNC(=O)N(CC#C)N=O`, the TGI is over 100 µM with 786-0 renal; 63.4 µM in the assay on HL-60(TB) leukemia; over 100 µM with KM12 colon; over 100 µM in the assay with LOX IMVI melanoma; over 100 µM in the assay on SF-268 CNS; over 100 µM with SK-MEL-5 melanoma. The TGI with SN12C renal and in the assay with U251 CNS was over 100 µM each time.

On to `COc1ccc(C(CCC(C)=O)C(=O)O)cc1OC` (stereo unspecified), for which the TGI in the assay with 786-0 renal, in the assay with COLO 205 colon, in the assay on KM12 colon, in the assay on LOX IMVI melanoma, in the assay with SF-268 CNS and with SK-MEL-5 melanoma was over 100 µM throughout. For the same compound, the TGI with SN12C renal and in the assay with U251 CNS was over 100 µM in each case.

Take `CCN(CC)CC(C)(C)C(=O)/C=C/c1cccc(/C=C/C(=O)C(C)(C)CN(CC)CC)c1`: the TGI in the assay on 786-0 renal stood at 1.87 µM; in the assay with COLO 205 colon, 0.821 µM; in the assay with KM12 colon, 1.77 µM; in the assay on LOX IMVI melanoma, 0.37 µM; in the assay on SF-268 CNS, 1.68 µM; with SK-MEL-5 melanoma, 2.97 µM. For the same compound, the TGI is 1.04 µM in the assay with SN12C renal and 0.686 µM in the assay on U251 CNS.

Take `C=C=C(C(=O)OC)S(=O)c1ccccc1[N+](=O)[O-]` (stereo unspecified): the TGI in the assay with 786-0 renal, in the assay on COLO 205 colon, with HL-60(TB) leukemia, in the assay on KM12 colon, in the assay with SF-268 CNS and in the assay on SK-MEL-5 melanoma was over 100 µM in each case. Further, the TGI in the assay on SN12C renal and in the assay on U251 CNS was over 100 µM throughout.

With `CC(=O)Nc1ccccc1-c1nc2ccccc2nc1C`, the TGI in the assay on 786-0 renal, in the assay with COLO 205 colon, in the assay on HL-60(TB) leukemia, with KM12 colon, in the assay with LOX IMVI melanoma and with SF-268 CNS was over 100 µM each time. For the same compound, the TGI in the assay on SK-MEL-5 melanoma, with SN12C renal and in the assay on U251 CNS was over 100 µM in each case.

Take `COC1OC(CO)C(O)C(OC(C)=O)C1NC(=O)N(CCCl)N=O` (stereo unspecified): the TGI with 786-0 renal, in the assay on COLO 205 colon, in the assay with HL-60(TB) leukemia, in the assay with KM12 colon, in the assay with LOX IMVI melanoma and in the assay with SF-268 CNS was over 100 µM throughout. Also, the TGI with SK-MEL-5 melanoma and in the assay on SN12C renal was over 100 µM throughout.

For `COc1ccccc1NC(=O)C1=C(C)NC(C)=C(C(=O)Nc2ccccc2OC)C1C1=CC=COC1`, the TGI with 786-0 renal is over 100 µM; with COLO 205 colon it was over 100 µM; in the assay on HL-60(TB) leukemia, 10.7 µM; in the assay on KM12 colon, 49.6 µM; in the assay on SF-268 CNS, 62.4 µM; in the assay on SK-MEL-5 melanoma, 41.9 µM. The TGI was over 100 µM with SN12C renal and 77.1 µM in the assay on U251 CNS.

Regarding `Cc1ccc(S(=O)(=O)c2ccc(NC(=O)SCCC(=O)O)cc2)cc1`, the TGI with 786-0 renal, with COLO 205 colon, in the assay with HL-60(TB) leukemia, with KM12 colon, in the assay with LOX IMVI melanoma and with SF-268 CNS was over 100 µM each time. Besides, the TGI in the assay with SN12C renal and in the assay on U251 CNS was over 100 µM each time.

Take `O=c1cc(-c2ccccc2)oc2ccc(OC/C(=N/O)c3ccccc3)cc12`: the GI50 is 8.92 µM in the assay with 786-0 renal; 1.89 µM in the assay on COLO 205 colon; 2.12 µM with HL-60(TB) leukemia; 1.95 µM with KM12 colon; 2.76 µM in the assay with LOX IMVI melanoma; 2.08 µM with SF-268 CNS. Moreover, the GI50 in the assay on SK-MEL-5 melanoma was 1.82 µM; in the assay with SN12C renal, 2.79 µM; in the assay on U251 CNS, 2.35 µM. Besides, the TGI with 786-0 renal is over 50 µM; with COLO 205 colon, 25.3 µM; in the assay with HL-60(TB) leukemia, over 50 µM; in the assay with KM12 colon, over 50 µM; with LOX IMVI melanoma, 20.2 µM; in the assay with SF-268 CNS, 13.2 µM. Also, the TGI in the assay with SK-MEL-5 melanoma is 11.7 µM; with SN12C renal it was 33.9 µM; in the assay on U251 CNS it was over 50 µM.

As for `O=C1CC(c2c(-c3ccccc3)[nH]c3ccccc23)C(=O)N1` (stereo unspecified), the TGI in the assay on 786-0 renal, with HL-60(TB) leukemia, with KM12 colon, in the assay on SK-MEL-5 melanoma and in the assay on U251 CNS was over 100 µM each time.
